Measurements from patent US20150352108A1, “AMINO-PYRIMIDINE COMPOUNDS AS INHIBITORS OF TBK1 AND/OR IKK EPSILON” (Alzheimer's Institute of America, priority 2009, published 2015).
Where two headings read alike, the source gives them in different places.

How the values were obtained:
IKKε = molecular target: T1, IKKε (Homo sapiens, UniProt Q14164); assay: In-vitro IKKε kinase assay ([γ33]ATP filter-plate); format: biochemical
T1 construct: His-tag; made in house; host or cells: Sf9 insect cells
T1 sequence (Q14164 1-716): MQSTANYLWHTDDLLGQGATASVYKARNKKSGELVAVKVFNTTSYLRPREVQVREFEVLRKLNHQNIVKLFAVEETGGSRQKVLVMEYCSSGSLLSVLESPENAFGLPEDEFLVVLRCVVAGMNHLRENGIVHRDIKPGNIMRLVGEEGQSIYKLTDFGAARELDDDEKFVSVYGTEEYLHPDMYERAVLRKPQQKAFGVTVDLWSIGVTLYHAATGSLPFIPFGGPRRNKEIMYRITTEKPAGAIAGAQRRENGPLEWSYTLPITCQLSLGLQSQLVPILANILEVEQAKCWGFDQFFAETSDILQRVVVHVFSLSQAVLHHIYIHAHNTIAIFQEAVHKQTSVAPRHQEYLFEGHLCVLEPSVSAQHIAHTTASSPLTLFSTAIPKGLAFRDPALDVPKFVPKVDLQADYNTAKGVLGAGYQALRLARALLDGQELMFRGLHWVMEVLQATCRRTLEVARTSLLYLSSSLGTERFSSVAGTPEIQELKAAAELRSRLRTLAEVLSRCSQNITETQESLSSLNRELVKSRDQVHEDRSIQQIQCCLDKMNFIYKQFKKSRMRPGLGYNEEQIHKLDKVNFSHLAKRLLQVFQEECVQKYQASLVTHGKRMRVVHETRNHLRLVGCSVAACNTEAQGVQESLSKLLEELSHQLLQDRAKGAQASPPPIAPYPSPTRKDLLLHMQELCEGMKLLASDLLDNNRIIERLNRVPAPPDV
Method in brief: (§1)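 His-tagged IKKε and TBK1 from Sf9 cells were assayed with myelin basic protein or casein and [γ33]ATP at 2×Km ATP (32 μM for IKKε, 60 μM for TBK1). Enzyme was 0.1 or 0.015 μg/ml for IKKε and 0.1 or 0.02 μg/ml for TBK1 (normal/sensitized). Reactions ran 30-45 min, were filter-captured, scintillation-counted, and normalized to DMSO after background subtraction.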

[1] = tested on: IKKε-mediated phosphorylation of IRF3; assay: In-situ phosphorylation of IRF3 (pIRF3 Ser396 ELISA) in HEK293T cells cotransfected with IRF3 and IKKε; format: cell-based; settings: Homo sapiens, HEK-293T
Method in brief: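 Cells for the IRF7 Western blots carried IRF7 and TBK1 plasmids, were seeded at 150,000/well, exposed to compound overnight and probed for pSer477/Ser479 IRF7. The ELISA readout used IRF3 + IKKε-cotransfected HEK293T at 20,000/well with 20 h treatment, quantifying pSer396 IRF3 relative to DMSO, plus a parallel CellTiter-Glo viability check.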

TBK1 = molecular target: T2, TBK1 (Homo sapiens, UniProt Q9UHD2); assay: In-vitro TBK1 kinase assay ([γ33]ATP filter-plate); format: biochemical
T2 construct: His-tag; made in house; host or cells: Sf9 insect cells
T2 sequence (Q9UHD2 1-729): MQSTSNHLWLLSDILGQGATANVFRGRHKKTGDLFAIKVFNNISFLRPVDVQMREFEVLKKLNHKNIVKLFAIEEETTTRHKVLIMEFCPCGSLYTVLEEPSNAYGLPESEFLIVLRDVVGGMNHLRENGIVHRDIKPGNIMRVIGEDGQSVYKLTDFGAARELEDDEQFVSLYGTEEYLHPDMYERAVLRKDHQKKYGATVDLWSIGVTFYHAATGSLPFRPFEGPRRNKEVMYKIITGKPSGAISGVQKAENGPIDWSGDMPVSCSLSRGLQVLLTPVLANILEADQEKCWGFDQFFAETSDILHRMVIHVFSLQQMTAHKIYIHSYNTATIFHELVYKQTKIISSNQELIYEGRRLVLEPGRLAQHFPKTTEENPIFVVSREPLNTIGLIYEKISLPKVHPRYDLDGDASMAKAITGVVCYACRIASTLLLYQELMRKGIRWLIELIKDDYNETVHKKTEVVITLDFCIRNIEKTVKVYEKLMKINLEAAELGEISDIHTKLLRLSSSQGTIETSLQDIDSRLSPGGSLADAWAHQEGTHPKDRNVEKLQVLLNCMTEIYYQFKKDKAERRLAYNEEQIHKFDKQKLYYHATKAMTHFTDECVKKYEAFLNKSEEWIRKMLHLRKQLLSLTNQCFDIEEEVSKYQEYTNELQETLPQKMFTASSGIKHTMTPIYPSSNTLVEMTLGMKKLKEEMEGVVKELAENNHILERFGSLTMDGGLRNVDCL
Method in brief: as §1

[2] = text bins, read-out: IC50 for inhibition of the kinase activity of IKKε
[3] = HEK293T cells in culture, Table 3, read-out: pIRF3 ELISA IC50
[4] = HEK293T cells, 20 hours, text bins, read-out: IC50 for inhibition of the in-situ IKKε-mediated phosphorylation of IRF3
[5] = text bins, read-out: IC50 for inhibition of the kinase activity of TBK1

SMILES	IC50 (IKKε; Table 3, read-out: IKKε IC50) [nM]	IC50 (IKKε; [2]) [nM]	IC50 [1, 3] [nM]	IC50 [1, 4] [nM]	IC50 (TBK1; Table 3, read-out: TBK1 IC50) [nM]	IC50 (TBK1; [5]) [nM]
C[C@H](O)C(=O)NCc1ccc(Nc2nccc(-c3ccc(OC4CCOCC4)c(C#N)c3)n2)cc1 [compound 494, (2S)-N-[4-({4-[3-cyano-4-(tetrahydro-2H-pyran-4-yloxy)phenyl]pyrimidin-2-yl}amino)benzyl]-2-hydroxypropanamide]	–	< 5	–	100 to 250	–	< 10
COc1cc(Nc2nccc(-c3ccc(OC4CCOCC4)c(C#N)c3)n2)ccc1C(=O)N1CC(OC)C1 [compound 484, 5-[2-({3-Methoxy-4-[(3-methoxyazetidin-1-yl)carbonyl]phenyl}amino)pyrimidin-4-yl]-2-(tetrahydro-2H-pyran-4-yloxy)benzonitrile]	–	< 5	–	< 100	–	10 to 100
COCCNCc1ccc(Nc2nccc(-c3ccc(OC4CCOCC4)c(C#N)c3)n2)cc1 [compound 488, 5-{2-[(4-{[(2-methoxyethyl)amino]methyl}phenyl)amino]pyrimidin-4-yl}-2-(tetrahydro-2H-pyran-4-yloxy)benzonitrile]	–	< 5	–	< 100	–	< 10
N#Cc1cc(-c2ccnc(Nc3ccc(CN4CCOCC4)cc3)n2)ccc1OC1CCOCC1 [compound 510, 5-(2-{[4-(morpholin-4-ylmethyl)phenyl]amino}pyrimidin-4-yl)-2-(tetrahydro-2H-pyran-4-yloxy)benzonitrile]	–	< 5	–	< 100	–	< 10
COCCNC(=O)Nc1cccc(Nc2nccc(-c3ccc(OC4CCOCC4)c(C#N)c3)n2)c1 [compound 543, 1-[3-({4-[3-Cyano-4-(tetrahydro-2H-pyran-4-yloxy)phenyl]pyrimidin-2-yl}amino)phenyl]-3-(2-methoxyethyl)urea]	1.1	< 5	50.3	< 100	1.3	< 10
COc1cc(Nc2nccc(-c3ccc(OC4CCOCC4)c(C#N)c3)n2)ccc1N1CCOCC1 [Example 73, 5-(2-{[3-methoxy-4-(morpholin-4-yl)phenyl]amino}pyrimidin-4-yl)-2-(tetrahydro-2H-pyran-4-yloxy)benzonitrile]	–	< 5	–	< 100	–	< 10
COCCNCc1ccc(Nc2nccc(-c3ccc(OC4CCOCC4)c(C#N)c3)n2)cc1OC [compound 478, 5-{2-[(3-Methoxy-4-{[(2-methoxyethyl)amino]methyl}phenyl)amino]pyrimidin-4-yl}-2-(tetrahydro-2H-pyran-4-yloxy)benzonitrile]	–	< 5	–	< 100	–	< 10
COc1cc(Nc2nccc(-c3ccc(OC4CCOCC4)c(C#N)c3)n2)ccc1C(=O)NCCC1CCCN1C (stereo not drawn) [compound 307, 4-({4-[3-cyano-4-(tetrahydro-2H-pyran-4-yloxy)phenyl]pyrimidin-2-yl}amino)-2-methoxy-N-[2-(1-methylpyrrolidin-2-yl)ethyl]benzamide]	–	< 5	–	100 to 250	–	< 10
CC(C)N1CCN(C(=O)Cc2cccc(Nc3nccc(-c4ccc(OC5CCOCC5)c(C#N)c4)n3)c2)CC1 [compound 408, 5-{2-[(3-{2-Oxo-2-[4-(propan-2-yl)piperazin-1-yl]ethyl}phenyl)amino]pyrimidin-4-yl}-2-(tetrahydro-2H-pyran-4-yloxy)benzonitrile]	–	5 to 50	–	< 100	–	< 10
CCN(CC)CCOc1cc(Nc2nccc(-c3ccc(OC4CCOCC4)c(C#N)c3)n2)ccc1F [compound 586, 5-[2-({3-[2-(Diethylamino)ethoxy]-4-fluorophenyl}amino)pyrimidin-4-yl]-2-(tetrahydro-2H-pyran-4-yloxy)benzonitrile]	–	< 5	–	100 to 250	–	< 10
COc1cc(Nc2nccc(-c3ccc(OC4CCOCC4)c(C#N)c3)n2)ccc1S(=O)(=O)N1CCC(N(C)C)C1 (stereo not drawn) [compound 400, 5-{2-[(4-{[3-(dimethylamino)pyrrolidin-1-yl]sulfonyl}-3-methoxyphenyl)amino]pyrimidin-4-yl}-2-(tetrahydro-2H-pyran-4-yloxy)benzonitrile]	–	< 5	–	< 100	–	< 10

More lines, now with the values ahead:

IC50 (IKKε; Table 3, read-out: IKKε IC50) [nM]	IC50 (IKKε; [2]) [nM]	IC50 [1, 3] [nM]	IC50 [1, 4] [nM]	IC50 (TBK1; Table 3, read-out: TBK1 IC50) [nM]	IC50 (TBK1; [5]) [nM]	SMILES
1.1	< 5	98.5	< 100	1.6	< 10	CN1CCN(CCNc2cccc(Nc3nccc(-c4ccc(OC5CCOCC5)c(C#N)c4)n3)c2)CC1 [compound 616, 5-{2-[(3-{[2-(4-Methylpiperazin-1-yl)ethyl]amino}phenyl)amino]pyrimidin-4-yl}-2-(tetrahydro-2H-pyran-4-yloxy)benzonitrile]
–	< 5	–	100 to 250	–	< 10	COc1cc(Nc2nccc(-c3ccc(OC4CCOCC4)c(C#N)c3)n2)ccc1OCCCN1CCN(C)CC1 [Example 256, 5-[2-({3-methoxy-4-[3-(4-methylpiperazin-1-yl)propoxy]phenyl}amino)pyrimidin-4-yl]-2-(tetrahydro-2H-pyran-4-yloxy)benzonitrile]
–	< 5	–	100 to 250	–	< 10	COc1ccc(Nc2nccc(-c3ccc(OC4CCOCC4)c(C#N)c3)n2)cc1OCCOCCN [Example 32, 5-[2-({3-[2-(2-aminoethoxy)ethoxy]-4-methoxyphenyl}amino)pyrimidin-4-yl]-2-(tetrahydro-2H-pyran-4-yloxy)benzonitrile]
–	< 5	–	100 to 250	–	< 10	N#Cc1cc(-c2ccnc(Nc3ccc(F)c(OCCN)c3)n2)ccc1OC1CCOCC1 [compound 640, 5-(2-{[3-(2-Aminoethoxy)-4-fluorophenyl]amino}pyrimidin-4-yl)-2-(tetrahydro-2H-pyran-4-yloxy)benzonitrile]
–	< 5	–	< 100	–	< 10	CC1(COc2ccc(-c3ccnc(Nc4ccc(N5CCOCC5)cc4)n3)cc2C#N)COC1 [compound 444, 2-[(3-Methyloxetan-3-yl)methoxy]-5-(2-{[4-(morpholin-4-yl)phenyl]amino}pyrimidin-4-yl)benzonitrile]
1.1	< 5	71.9	< 100	0.4	< 10	COc1cc(Nc2nccc(-c3ccc(OC4CCOCC4)c(C#N)c3)n2)ccc1C(=O)NCCN(C)C [Example 2, 4-({4-[3-cyano-4-(tetrahydero-2H-pyran-4-yloxy)phenyl]pyrimidin-2-yl}amino)-N-[2-(dimethylamino)ethyl]-2-methoxybenzamide]
0.9	< 5	12.5	< 100	0.3	< 10	COc1cc(Nc2nccc(-c3ccc(OC4CCOCC4)c(C#N)c3)n2)ccc1S(=O)(=O)NCCCN1CCOCC1 [Example 176]
